The CheMixHub ionic liquid set

Test: xn = mol fraction of the nth substance listed

FC(F)C(F)(F)OCC(F)(F)C(F)(F)C(F)(F)C(F)F + CCCC[N+]1(C)CCCC1.FC(F)(F)C(F)(F)[P-](F)(F)(F)(C(F)(F)C(F)(F)F)C(F)(F)C(F)(F)F
101 kPa
Conditions	electrical conductivity [S/m]	viscosity [mPa·s]
298.1 K, x2 = 0	–	2.5
298.1 K, x2 = 0.12	0.18	–
298.1 K, x2 = 0.191	–	7.43
298.1 K, x2 = 0.194	0.257	–
298.1 K, x2 = 0.272	0.28	–
298.1 K, x2 = 0.363	0.306	–
298.1 K, x2 = 0.454	0.291	–
298.1 K, x2 = 0.456	–	25.4
298.1 K, x2 = 0.564	0.241	–
298.1 K, x2 = 0.694	0.182	65.6
298.1 K, x2 = 0.847	–	117.9
298.1 K, x2 = 0.853	0.161	–
303 K, x2 = 0.12	0.199	–
303 K, x2 = 0.123	–	4.63
303 K, x2 = 0.194	0.29	–
303 K, x2 = 0.269	0.32	–
303 K, x2 = 0.359	0.35	–
303 K, x2 = 0.361	–	14.13
303 K, x2 = 0.457	0.335	–
303 K, x2 = 0.567	0.288	32.7
303 K, x2 = 0.694	0.23	–
303 K, x2 = 0.847	–	91.9
303 K, x2 = 0.85	0.198	–
308.1 K, x2 = 0	–	2.12
308.1 K, x2 = 0.123	0.217	–
308.1 K, x2 = 0.191	0.32	–
308.1 K, x2 = 0.272	0.36	–
308.1 K, x2 = 0.273	–	8.09
308.1 K, x2 = 0.366	0.401	–
308.1 K, x2 = 0.456	–	17.2
308.1 K, x2 = 0.463	0.39	–
308.1 K, x2 = 0.564	0.343	–
308.1 K, x2 = 0.691	0.27	–
308.1 K, x2 = 0.847	0.234	71.6
313 K, x2 = 0.058	–	2.88
313 K, x2 = 0.123	0.239	–
313 K, x2 = 0.197	0.356	–
313 K, x2 = 0.272	0.412	–
313 K, x2 = 0.359	0.449	–
313 K, x2 = 0.361	–	11.01
313 K, x2 = 0.46	0.442	–
313 K, x2 = 0.57	0.387	–
313 K, x2 = 0.691	0.322	–
313 K, x2 = 0.694	–	33.7
313 K, x2 = 0.847	–	60.6
313 K, x2 = 0.85	0.289	–
318.1 K, x2 = 0	–	1.65
318.1 K, x2 = 0.12	–	3.41
318.1 K, x2 = 0.123	0.261	–
318.1 K, x2 = 0.194	0.389	–
318.1 K, x2 = 0.271	0.452	–
318.1 K, x2 = 0.362	0.5	–
318.1 K, x2 = 0.45	0.504	–
318.1 K, x2 = 0.456	–	13.04
318.1 K, x2 = 0.567	0.449	–
318.1 K, x2 = 0.69	0.373	–
318.1 K, x2 = 0.691	–	27.8
318.1 K, x2 = 0.844	–	49.9
318.1 K, x2 = 0.846	0.337	–
323 K, x2 = 0	–	1.52
323 K, x2 = 0.119	0.283	–
323 K, x2 = 0.19	0.43	–
323 K, x2 = 0.195	–	4.04
323 K, x2 = 0.271	0.5	–
323 K, x2 = 0.358	–	7.89
323 K, x2 = 0.359	0.558	–
323 K, x2 = 0.453	0.566	–
323 K, x2 = 0.563	0.508	–
323 K, x2 = 0.567	–	15.44
323 K, x2 = 0.69	0.424	–
323 K, x2 = 0.846	0.392	–
323 K, x2 = 0.848	–	40

N#C[N-]S(=O)(=O)C(F)(F)F.[Li+] + CCCC[N+]1(C)CCCC1.N#C[N-]S(=O)(=O)C(F)(F)F
101 kPa, frequency 0 MHz
Conditions	electrical conductivity [S/m]
303 K, x1 = 0.1	0.295
318 K, x1 = 0.2	0.194
323 K, x1 = 0.05	0.706
323 K, x1 = 0.1	0.558

101 kPa
Conditions	viscosity [mPa·s]
303 K, x1 = 0.1	89.5
318 K, x1 = 0.2	150
323 K, x1 = 0.05	30.3
323 K, x1 = 0.1	43.5
328 K, x1 = 0.1	34.6

O=S(=O)([N-]S(=O)(=O)C(F)(F)F)C(F)(F)F.[Na+] + CCCC[N+]1(C)CCCC1.O=S(=O)([N-]S(=O)(=O)C(F)(F)F)C(F)(F)F
100 kPa, x1 = 0.24
Conditions	electrical conductivity [S/m]
280.2 K	0.013
338.7 K	0.409
347.4 K	0.521
400.6 K	1.83

O=Cc1ccco1 + CCCC[P+](C)(CCCC)CCCC.COS(=O)(=O)[O-]
100 kPa
Conditions	viscosity [mPa·s]
293.15 K, x2 = 0.1	9
293.15 K, x2 = 0.191	41
293.15 K, x2 = 0.624	270
298.15 K, x2 = 0.062	2.33
298.15 K, x2 = 0.1	3.5
303.15 K, x2 = 0.191	6.7
303.15 K, x2 = 0.732	182
308.15 K, x2 = 0.142	4
308.15 K, x2 = 0.317	12.6
308.15 K, x2 = 0.624	58
313.15 K, x2 = 0	1.17
313.15 K, x2 = 0.1	2.6
318.15 K, x2 = 0.062	1.64
318.15 K, x2 = 0.142	3.5
318.15 K, x2 = 0.249	5.7
318.15 K, x2 = 0.499	20.5
323.15 K, x2 = 0.191	4
323.15 K, x2 = 0.249	4.7

CC(C)O + CCCC[n+]1ccn(C)c1.F[B-](F)(F)F
101 kPa, x2 = 0
Conditions	viscosity [mPa·s]
293.15 K	2.42
298.15 K	2.08
303.15 K	1.8
308.15 K	1.56
313.15 K	1.36
318.15 K	1.19
323.15 K	1.05

CCCC[n+]1ccn(C)c1.[Cl-] + CCCC[n+]1ccn(C)c1.F[B-](F)(F)F
Conditions	viscosity [mPa·s]
293 K, 101 kPa, x1 = 0.1015	201

ClC(Cl)Cl + CCCC[n+]1ccn(C)c1.F[B-](F)(F)F
298.15 K, 101 kPa
Conditions	electrical conductivity [S/m]	viscosity [mPa·s]
x1 = 0.1079	0.245	92
x1 = 0.2033	0.29	73
x1 = 0.3071	0.347	55.5
x1 = 0.4018	0.411	40.8
x1 = 0.5052	0.498	27.1
x1 = 0.6091	0.586	16.3
x1 = 0.7028	0.676	9.2
x1 = 0.7825	0.668	5.01
x1 = 0.8491	0.54	2.99
